{"source": "paper PMC4669722", "about": "“Antitumour potential of BPT: a dual inhibitor of cdk4 and tubulin polymerization” (Cell Death & Disease, 2015)", "tested_on": "pBluescript plasmid DNA", "experiment": "Topoisomerase I catalysed DNA relaxation or unwinding assay", "type": "biochemical", "experimental": "For assay, 5 nM supercoiled pBluescript d-s plasmid DNA and 10 U of topoisomerase-I active enzyme were used in each reaction well. To ensure that the assay determines the DNA-intercalating property of compounds and not topoisomerase I inhibition, in a parallel experiment relaxed plasmid DNA was first prepared by treating with topo I enzyme for 30 min and then used as an initial substrate for the assay. DNA relaxation assays were performed in the presence or absence of compounds in 40 μl of DNA unwinding assay buffer. After 30 min incubation at 37 °C, reaction mixtures were treated with 3 μl of 250 mM EDTA and extracted with phenol/chloroform. The DNA was dissolved in tris-EDTA buffer, pH 8.0. The samples (20 μl) were treated with 2 μl of 2.5% SDS, mixed with 2.5 μl agarose gel loading buffer (10x) and subjected to electrophoresis on a 0.8% agarose gel without EtBr (separating the DNA in the presence of EtBr would convert the relaxed DNA into the supercoiled form). After the electrophoretic separation, DNA bands were stained with 1 μg/ml EtBr and visualized using a UV illuminator. The compounds were compared with fascaplysin, which is a known DNA-intercalating molecule. Camptothecin, which is a known topoisomerase- I inhibitor, was used to test the activity and inhibition of enzyme.", "note": "Entries after “also recorded” stand apart in the source; their conditions may differ."}
{"compound": "O=C(c1ccccc1-c1ccccc1)N1CCc2c([nH]c3ccccc23)C1", "note": "[BPT, 2-(biphenyl-2-carbonyl)-2,3,4,9-tetrahydro-1H-pyrido[3,4-b]indole]", "values": [{"measurement": "state of relaxed (negatively supercoiled) plasmid DNA after treatment", "setting": "relaxed pBluescript DNA as substrate, BPT up to 100 μM, fascaplysin 1 μM", "value": "remained relaxed"}, {"measurement": "hindrance of topoisomerase-I catalysed DNA relaxation", "setting": "supercoiled pBluescript DNA, fascaplysin 10 and 1 µM, BPT 10 and 100 µM", "value": "does not hinder DNA relaxation process; also recorded: does not intercalate"}]}
